Test results published in patent US10759791B2, “Mammalian and bacterial nitric oxide synthase inhibitors” (Northwestern University, priority 2014, dated 2020).

Assays:
[1] = biological target: T1, rat nNOS (Rattus norvegicus (Rat), UniProt P29476); test: Hemoglobin capture assay, Ki (Tables 11-12); conditions: ratio of Ki values
[2] = biological target: T1, rat nNOS; test: Oxyhemoglobin NO assay, Ki (Table 9); assay type: biochemical; conditions: for e/n: ratio Ki eNOS to Ki rat nNOS; for i/n: ratio Ki iNOS to Ki rat nNOS
[3] = biological target: T1, rat nNOS; test: Hemoglobin capture assay, Ki (Example 159); assay type: biochemical; conditions: for Selectivity n/i: rat nNOS vs murine iNOS
[4] = biological target: T2, human nNOS (Homo sapiens (Human), UniProt P29475); test: Hemoglobin capture assay, Ki (Example 159); assay type: biochemical
[5] = biological target: human eNOS (Homo sapiens (Human), UniProt P29474); test: Hemoglobin capture assay, Ki (Example 159); assay type: biochemical
[6] = biological target: bovine eNOS (Bos taurus (Bovine), UniProt P29473); test: Hemoglobin capture assay, Ki (Example 159); assay type: biochemical
[7] = tested on: S. aureus UAMS1182; test: Effect of H2O2 and NOS inhibitors on S. aureus; assay type: cell-based, Staphylococcus aureus; conditions: for H2O2-mediated killing of S. aureus on co-treatment: 200 μM inhibitor + 5 mM H2O2; for S. aureus survival, inhibitor alone: 200 μM, WT and Δnos strains
[8] = biological target: bBiDomain (Bacillus subtilis (strain 168), UniProt O34453); test: bNOS activity inhibition with bBiDomain and YumC, nitrite by Griess reaction; conditions: for % nitrite: inhibitor 30 μM, NOHA 200 μM, 4 min, single time point
[9] = Plasma pharmacokinetics and brain distribution in mice; conditions: for T1/2: i.v. 2 mg/kg
[10] = biological target: T2, human nNOS; test: Oxyhemoglobin NO assay, Ki (Table 9); assay type: biochemical
[11] = biological target: CYP1A2 (Homo sapiens (Human), UniProt P05177); test: CYP inhibition assay, human liver microsomes; conditions: 10 μM
[12] = tested on: B. subtilis; test: Effect of oxidative stress (ACR, H2O2) and NOS inhibitors on B. subtilis survival and growth; assay type: cell-based, Bacillus subtilis
[13] = biological target: bsNOS (Bacillus subtilis (strain 168), UniProt O34453); test: Imidazole displacement, spectral binding constant KS; conditions: 50 μM H4B
[14] = biological target: CYP2C8 (Homo sapiens (Human), UniProt P10632); conditions: 10 μM
[15] = tested on: Caco-2 cells
[16] = human, plasma, 4 h, 5 μM
[17] = in vitro; conditions: human, human plasma, pH 7.4

Chain of bBiDomain (O34453 other isoform, or with tags, fused parts or gaps): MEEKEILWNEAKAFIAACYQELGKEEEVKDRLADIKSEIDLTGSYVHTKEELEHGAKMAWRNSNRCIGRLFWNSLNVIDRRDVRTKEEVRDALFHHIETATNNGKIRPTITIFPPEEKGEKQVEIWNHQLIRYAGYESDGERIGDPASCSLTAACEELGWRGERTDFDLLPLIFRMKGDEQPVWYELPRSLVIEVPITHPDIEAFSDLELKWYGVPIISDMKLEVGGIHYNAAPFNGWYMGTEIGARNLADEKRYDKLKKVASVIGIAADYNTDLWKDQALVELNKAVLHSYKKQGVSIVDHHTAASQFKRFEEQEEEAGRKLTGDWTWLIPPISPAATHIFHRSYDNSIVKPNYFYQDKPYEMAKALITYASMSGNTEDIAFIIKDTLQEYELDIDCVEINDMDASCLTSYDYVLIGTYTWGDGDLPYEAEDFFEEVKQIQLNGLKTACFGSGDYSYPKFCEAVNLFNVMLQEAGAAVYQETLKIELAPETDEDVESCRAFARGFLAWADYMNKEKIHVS
Chain of CYP2C8 (P10632 whole entry): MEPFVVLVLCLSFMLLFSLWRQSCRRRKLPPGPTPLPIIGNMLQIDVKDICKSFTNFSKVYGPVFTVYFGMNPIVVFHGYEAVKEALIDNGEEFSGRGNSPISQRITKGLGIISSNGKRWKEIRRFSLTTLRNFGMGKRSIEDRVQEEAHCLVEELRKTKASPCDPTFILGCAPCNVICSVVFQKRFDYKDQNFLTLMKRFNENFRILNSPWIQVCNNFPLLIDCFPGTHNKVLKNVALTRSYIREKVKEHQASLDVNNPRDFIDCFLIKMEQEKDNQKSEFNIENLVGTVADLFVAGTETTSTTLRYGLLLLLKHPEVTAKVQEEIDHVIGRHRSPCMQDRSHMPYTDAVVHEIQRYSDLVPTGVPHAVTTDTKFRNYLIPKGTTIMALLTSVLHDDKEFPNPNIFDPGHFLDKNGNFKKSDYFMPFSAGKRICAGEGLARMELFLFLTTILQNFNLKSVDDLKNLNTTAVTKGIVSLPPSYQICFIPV
Chain of CYP1A2 (P05177 whole entry): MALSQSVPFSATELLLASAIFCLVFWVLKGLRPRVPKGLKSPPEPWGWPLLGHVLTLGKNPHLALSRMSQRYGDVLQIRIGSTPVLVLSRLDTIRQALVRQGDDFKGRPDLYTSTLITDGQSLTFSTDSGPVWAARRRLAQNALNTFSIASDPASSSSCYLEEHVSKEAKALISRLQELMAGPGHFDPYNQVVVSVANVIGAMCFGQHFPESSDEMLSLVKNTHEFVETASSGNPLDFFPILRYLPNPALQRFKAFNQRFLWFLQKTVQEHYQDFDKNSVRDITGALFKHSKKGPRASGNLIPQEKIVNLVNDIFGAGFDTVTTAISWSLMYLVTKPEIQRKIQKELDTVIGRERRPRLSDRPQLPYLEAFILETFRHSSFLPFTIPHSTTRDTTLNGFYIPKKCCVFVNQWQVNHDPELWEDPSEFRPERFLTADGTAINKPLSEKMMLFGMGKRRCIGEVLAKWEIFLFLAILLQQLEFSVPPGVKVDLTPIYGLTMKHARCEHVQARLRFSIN
Chain of bsNOS (O34453 whole entry): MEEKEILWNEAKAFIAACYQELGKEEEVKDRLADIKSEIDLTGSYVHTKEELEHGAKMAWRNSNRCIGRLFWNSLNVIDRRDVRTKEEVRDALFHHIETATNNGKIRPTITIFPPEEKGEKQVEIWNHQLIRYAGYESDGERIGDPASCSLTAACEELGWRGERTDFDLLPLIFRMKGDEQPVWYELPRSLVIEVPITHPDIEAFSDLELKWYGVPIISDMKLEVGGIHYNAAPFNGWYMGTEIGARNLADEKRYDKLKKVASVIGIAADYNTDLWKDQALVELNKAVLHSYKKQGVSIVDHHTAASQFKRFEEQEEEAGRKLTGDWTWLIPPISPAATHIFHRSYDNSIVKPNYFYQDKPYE

Compound | e/n [2] | i/n [2] | Ki [10] | also measured
Cc1ccnc(CCc2cccc([C@H](N)Cc3cc(C)cc(N)n3)c2)c1 [Compound 5R, (R)-6-(2-Amino-2-(3-(2-(4-methylpyridin-2-yl)ethyl)phenyl)ethyl)-4-methylpyridin-2-amine] | – | – | – | e/n [1]: 240; i/n [1]: >22
Cc1ccnc(CCc2cccc([C@@H](N)Cc3cc(C)cc(N)n3)c2)c1 [Compound 5S, (S)-6-(2-Amino-2-(3-(2-(4-methylpyridin-2-yl)ethyl)phenyl)ethyl)-4-methylpyridin-2-amine] | – | – | – | e/n [1]: 363; i/n [1]: >110
CNCCN(C)c1cccc(CCc2cc(C)cc(N)n2)c1 [Compound 10a, N^1-(3-(2-(6-Amino-4-methylpyridin-2-yl)ethyl)phenyl)-N^1,N^2-dimethylethane-1,2-diamine] | 156 | 41 | – | –
Cc1cc(N)nc(CCc2cccc(NCCN(C)C)c2)c1 [Compound 10b, N^1-(3-(2-(6-Amino-4-methylpyridin-2-yl)ethyl)phenyl)-N^2,N^2-dimethylethane-1,2-diamine] | 125 | 29 | – | –
Cc1cc(N)nc(CCc2cccc(N(C)CCN)c2)c1 [Compound 10c, N^1-(3-(2-(6-Amino-4-methylpyridin-2-yl)ethyl)phenyl)-N^1-methylethane-1,2-diamine] | 172 | 47 | – | –
Cc1cc(N)nc(CCc2cccc(N(C)CCCN)c2)c1 [Compound 10d, N^1-(3-(2-(6-Amino-4-methylpyridin-2-yl)ethyl)phenyl)-N-methylpropane-1,3-diamine] | 25 | 11 | – | –
Cc1cc(N)nc(CCc2cncc(N3CCOCC3)c2)c1 [Compound 14c, 4-Methyl-6-(2-(5-morpholinopyridin-3-yl)ethyl)pyridin-2-amine] | – | – | – | Ki [3]: 547 nM; Selectivity n/i [3]: 21; Ki [4]: 862 nM; Selectivity n/e (human) ([4]; human nNOS vs human eNOS): 49; Ki [5]: 42600 nM
COCCCNc1cncc(CCc2cc(C)cc(N)n2)c1 [Compound 14e, 6-(2-(5-(3-Methoxypropylamino)pyridin-3-yl)ethyl)-4-methylpyridin-2-amine] | – | – | – | Ki [3]: 558 nM; Selectivity n/i [3]: 13
Cc1cc(N)nc(CCc2cncc(CCCN(C)C)c2)c1 [Compound 14k, 6-(2-(5-(3-(Dimethylamino)propyl)pyridin-3-yl)ethyl)-4-methylpyridin-2-amine] | – | – | – | Ki [6]: 16600 nM; Ki [4]: 37 nM; Ki [5]: 39500 nM
Nc1ccc2ccc(CCNCCCc3cccc(F)c3)cc2n1 [Compound 19, reference compound] | – | – | – | H2O2-mediated killing of S. aureus on co-treatment [7]: significantly increases the H2O2-mediated killing; S. aureus survival, inhibitor alone [7]: reduced bacterial survival over time; Ki [8]: 69.7 nM; % nitrite [8]: 6.1%
CNCCN(C)c1cc(CCc2cc(C)cc(N)n2)cc(C(F)(F)F)c1 [Compound 19a, N^1-(3-(2-(6-Amino-4-methylpyridin-2-yl)ethyl)-5-(trifluoromethyl)phenyl)-N^1,N^2-dimethylethane-1,2-diamine] | 238 | 122 | – | –
CNCCN(C)c1cc(C#N)cc(CCc2cc(C)cc(N)n2)c1 [Compound 19c, 3-(2-(6-Amino-4-methylpyridin-2-yl)ethyl)-5-(methyl(2-(methylamino)ethyl)amino)benzonitrile] | – | – | – | T1/2 ([9]; brain): 24.80 h; T1/2 ([9]; plasma): 1.1 h; AUCinf ([9]; p.o. 10 mg/kg, plasma): 182.46 ng·h/mL
CCNCCN(C)c1cc(C#N)cc(CCc2cc(C)cc(N)n2)c1 [Compound 21a] | 583.7 | 178.0 | 225 nM | –
Cc1cc(N)nc(CCc2cc(C#N)cc(N(C)CCNC(C)C)c2)c1 [Compound 21b] | 320.1 | 361.5 | 357 nM | –
Cc1cc(N)nc(CCc2cc(C#N)cc(N(C)CCNC3CC3)c2)c1 [Compound 21c] | 274.0 | 246.6 | 378 nM | –
Cc1cc(N)nc(CCc2cc(C#N)cc(N(C)CCc3cccc(F)c3)c2)c1 [Compound 21d] | – | 33.7 | – | –
Cc1cc(N)nc(CCc2cc(F)cc(NCCN(C)C)c2)c1 [Compound 23a, N^1-(3-(2-(6-Amino-4-methylpyridin-2-yl)ethyl)-5-fluorophenyl)-N^2,N^2-dimethylethane-1,2-diamine] | 136.9 | 47.3 | 758 nM | –

Compound | e/n [2] | i/n [2] | Ki [10] | also measured
CCNCCN(C)c1cc(F)cc(CCc2cc(C)cc(N)n2)c1 [Compound 23b, N^1-(3-(2-(6-Amino-4-methylpyridin-2-yl)ethyl)-5-fluorophenyl)-N^2-ethyl-N^1-methylethane-1,2-diamine] | 558.4 | 199.4 | 194 nM | –
Cc1cc(N)nc(CCc2cc(F)cc(N(C)CCNC3CC3)c2)c1 [Compound 23c, N^1-(3-(2-(6-Amino-4-methylpyridin-2-yl)ethyl)-5-fluorophenyl)-N^2-cyclopropyl-N^1-methylethane-1,2-diamine] | 124.3 | 217.8 | 243 nM | –
CCN(CCNC)c1cc(F)cc(CCc2cc(C)cc(N)n2)c1 [Compound 23d, N^1-(3-(2-(6-Amino-4-methylpyridin-2-yl)ethyl)-5-fluorophenyl)-N^1-ethyl-N^2-methylethane-1,2-diamine] | 93.2 | 109.6 | 139 nM | –
CNCCN(c1cc(F)cc(CCc2cc(C)cc(N)n2)c1)C1CC1 [Compound 23e, N^1-(3-(2-(6-amino-4-methylpyridin-2-yl)ethyl)-5-fluorophenyl)-N^1-cyclopropyl-N^2-methylethane-1,2-diamine] | 140.9 | 148.7 | 238 nM | –
Cc1cc(N)nc(CCc2cc(F)cc(NCc3cccc(Cl)c3)c2)c1 [Compound 23f, 6-(3-((3-Chlorobenzyl)amino)-5-fluorophenethyl)-4-methylpyridin-2-amine] | 262.0 | 354.1 | 2070 nM | –
Cc1cc(N)nc(CCc2cc(F)cc(NCc3cccnc3)c2)c1 [Compound 23g, 6-(3-Fluoro-5-((pyridin-3-ylmethyl)amino)phenethyl)-4-methylpyridin-2-amine] | 10.0 | 10.7 | 255 nM | –
Cc1cc(N)nc(CCc2cc(F)cc(N3CCNCC3)c2)c1 [Compound 23h, 6-(3-Fluoro-5-(piperazin-1-yl)phenethyl)-4-methylpyridin-2-amine] | 82.8 | 60.2 | 161 nM | –
Cc1cc(N)nc(CCc2cc(F)cc(NC3CCNCC3)c2)c1 [Compound 23i, 6-(3-Fluoro-5-(piperidin-4-ylamino)phenethyl)-4-methylpyridin-2-amine] | 40.2 | 110.9 | 384 nM | –
Cc1cc(N)nc(-c2ccc(CNCCc3cccc(F)c3)cc2)c1 [Compound 27, 6-(4-(((3-Fluorophenethyl)amino)methyl)phenyl)-4-methylpyridin-2-amine] | – | – | – | H2O2-mediated killing of S. aureus on co-treatment [7]: significantly increases the H2O2-mediated killing; S. aureus survival, inhibitor alone [7]: reduced bacterial survival over time; Ki [8]: 502 nM; % nitrite [8]: 13.2%
COCCCC/C(=N\OCCN)c1ccc(C(F)(F)F)cc1 [Fluvoxamine, reference compound] | – | – | – | % inhibition CYP1A2 [11]: 95%
N=C(NCCC[C@H](N)C(=O)O)N[N+](=O)[O-] [L-NNA, N^ω-nitro-L-arginine] | – | – | – | % survival of wt B. subtilis with ACR ([12]; NOS inhibitor + ACR, 30 min): bacterial % survival decreased in the presence of ACR; % survival of wt B. subtilis with H2O2 ([12]; NOS inhibitor + H2O2, 30 min): trivial effects on bacterial survival; % nitrite [8]: 40.9±5.3%
NC(=NCCC[C@H](N)C(=O)O)NO [NOHA, N-omega-hydroxy-L-arginine] | – | – | – | fold difference in binding (KS) in presence vs absence of H4B [13]: 1.2 fold
O=c1c(O)c(-c2ccc(O)c(O)c2)oc2cc(O)cc(O)c12 [Quercetin] | – | – | – | % inhibition CYP2C8 [14]: 95%
CNC(=C[N+](=O)[O-])NCCSCc1ccc(CN(C)C)o1 [Ranitidine] | – | – | – | apparent permeability (Papp) mean A → B ([15]; 10 μM, 2 h): 0.45 10^−6 cm s^−1; apparent permeability (Papp) mean B → A ([15]; 10 μM, 2 h): 1.2 10^−6 cm s^−1; efflux ratio ([15]; Papp (B→A)/Papp (A→B)): 2.7
CC(=O)CC(c1ccccc1)c1c(O)c2ccccc2oc1=O (stereo not drawn) [Warfarin, reference compound] | – | – | – | % compound remaining at 4 h [16]: 94%; recovery at 4 h, 5 μM [17]: 100%
acriflavine | – | – | – | bacterial growth, % of control ([12]; single agent, 500 μM NOS inhibitor or 800 μM ACR): 23%
